What was measured:
Assay in all cases: relative viability (nuclei count vs DMSO), 5 days (fraction); higher = more cells survive
201T = system: 201T
In short: (§1)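 One day after seeding in 1536-well plates, lung cancer cell lines were dosed by pin tool. Dosing was either single-drug or a fixed anchor-drug dose plus five library-drug doses (not always all listed) in √10 steps. After 5 days, nuclei were stained in one fix-and-stain step and counted on 4× images, and relative viability is the nuclei count of treated wells over that of vehicle wells, given as the median of duplicate plates.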

BEN = system: BEN
In short: as §1

HCC-827 = system: HCC-827
In short: as §1

LCLC-103H = system: LCLC-103H
In short: as §1

LCLC-97TM1 = system: LCLC-97TM1
In short: as §1

LXF-289 = system: LXF-289
In short: as §1

NCI-H1395 = system: NCI-H1395
In short: as §1

NCI-H1437 = system: NCI-H1437
In short: as §1

NCI-H1650 = system: NCI-H1650
In short: as §1

NCI-H1792 = system: NCI-H1792
In short: as §1

NCI-H1793 = system: NCI-H1793
In short: as §1

NCI-H1944 = system: NCI-H1944
In short: as §1

NCI-H2087 = system: NCI-H2087
In short: as §1

NCI-H2405 = system: NCI-H2405
In short: as §1

NCI-H3122 = system: NCI-H3122
In short: as §1

NCI-H322M = system: NCI-H322M
In short: as §1

NCI-H647 = system: NCI-H647
In short: as §1

NCI-H727 = system: NCI-H727
In short: as §1

RERF-LC-KJ = system: RERF-LC-KJ
In short: as §1

SK-LU-1 = system: SK-LU-1
In short: as §1

O=c1cc(-c2cccc3c2Sc2ccccc2S3)oc(N2CCOCC2)c1 + Nc1ncn([C@H]2C[C@H](O)[C@@H](CO)O2)c(=O)n1 [Decitabine] (partner 2 µM)
relative viability (201T; first compound 0.08 µM): 0.855 | relative viability (201T; first compound 0.253 µM): 0.882 | relative viability (201T; first compound 0.8 µM): 0.893 | relative viability (201T; first compound 2.53 µM): 0.816 | relative viability (201T; first compound 8 µM): 0.744 | relative viability (BEN; first compound 0.08 µM): 0.649 | relative viability (BEN; first compound 0.253 µM): 0.699 | relative viability (BEN; first compound 0.8 µM): 0.69 | relative viability (BEN; first compound 2.53 µM): 0.586 | relative viability (BEN; first compound 8 µM): 0.943 | relative viability (HCC-827; first compound 0.08 µM): 0.266 | relative viability (HCC-827; first compound 0.253 µM): 0.341 | relative viability (HCC-827; first compound 0.8 µM): 0.315 | relative viability (HCC-827; first compound 2.53 µM): 0.219 | relative viability (HCC-827; first compound 8 µM): 0.344 | relative viability (LCLC-103H; first compound 0.08 µM): 0.721 | relative viability (LCLC-103H; first compound 0.253 µM): 0.716 | relative viability (LCLC-103H; first compound 0.8 µM): 0.646 | relative viability (LCLC-103H; first compound 2.53 µM): 0.675 | relative viability (LCLC-103H; first compound 8 µM): 0.702 | relative viability (LCLC-97TM1; first compound 0.08 µM): 0.195 | relative viability (LCLC-97TM1; first compound 0.253 µM): 0.217 | relative viability (LCLC-97TM1; first compound 0.8 µM): 0.256 | relative viability (LCLC-97TM1; first compound 2.53 µM): 0.186 | relative viability (LCLC-97TM1; first compound 8 µM): 0.242 | relative viability (LXF-289; first compound 0.08 µM): 0.389 | relative viability (LXF-289; first compound 0.253 µM): 0.465 | relative viability (LXF-289; first compound 0.8 µM): 0.42 | relative viability (LXF-289; first compound 2.53 µM): 0.439 | relative viability (LXF-289; first compound 8 µM): 0.416 | relative viability (NCI-H1395; first compound 0.08 µM): 0.711 | relative viability (NCI-H1395; first compound 0.253 µM): 0.825 | relative viability (NCI-H1395; first compound 0.8 µM): 0.736 | relative viability (NCI-H1395; first compound 2.53 µM): 0.718 | relative viability (NCI-H1395; first compound 8 µM): 0.763 | relative viability (NCI-H1437; first compound 0.08 µM): 0.573 | relative viability (NCI-H1437; first compound 0.253 µM): 0.708 | relative viability (NCI-H1437; first compound 0.8 µM): 0.628 | relative viability (NCI-H1437; first compound 2.53 µM): 0.524 | relative viability (NCI-H1437; first compound 8 µM): 0.578 | relative viability (NCI-H1650; first compound 0.08 µM): 0.415 | relative viability (NCI-H1650; first compound 0.253 µM): 0.511 | relative viability (NCI-H1650; first compound 0.8 µM): 0.416 | relative viability (NCI-H1650; first compound 2.53 µM): 0.365 | relative viability (NCI-H1650; first compound 8 µM): 0.374 | relative viability (NCI-H1792; first compound 0.08 µM): 0.531 | relative viability (NCI-H1792; first compound 0.253 µM): 0.828 | relative viability (NCI-H1792; first compound 0.8 µM): 0.45 | relative viability (NCI-H1792; first compound 2.53 µM): 0.723 | relative viability (NCI-H1792; first compound 8 µM): 0.575 | relative viability (NCI-H1793; first compound 0.08 µM): 0.536 | relative viability (NCI-H1793; first compound 0.253 µM): 0.614 | relative viability (NCI-H1793; first compound 0.8 µM): 0.478 | relative viability (NCI-H1793; first compound 2.53 µM): 0.487 | relative viability (NCI-H1793; first compound 8 µM): 0.476 | relative viability (NCI-H1944; first compound 0.08 µM): 0.406 | relative viability (NCI-H1944; first compound 0.253 µM): 0.448 | relative viability (NCI-H1944; first compound 0.8 µM): 0.457 | relative viability (NCI-H1944; first compound 2.53 µM): 0.432 | relative viability (NCI-H1944; first compound 8 µM): 0.468 | relative viability (NCI-H2087; first compound 0.08 µM): 0.231 | relative viability (NCI-H2087; first compound 0.253 µM): 0.257 | relative viability (NCI-H2087; first compound 0.8 µM): 0.266 | relative viability (NCI-H2087; first compound 2.53 µM): 0.242 | relative viability (NCI-H2087; first compound 8 µM): 0.238 | relative viability (NCI-H2405; first compound 0.08 µM): 0.697 | relative viability (NCI-H2405; first compound 0.253 µM): 0.864 | relative viability (NCI-H2405; first compound 0.8 µM): 0.677 | relative viability (NCI-H2405; first compound 2.53 µM): 0.695 | relative viability (NCI-H2405; first compound 8 µM): 0.756 | relative viability (NCI-H3122; first compound 0.08 µM): 0.36 | relative viability (NCI-H3122; first compound 0.253 µM): 0.551 | relative viability (NCI-H3122; first compound 0.8 µM): 0.45 | relative viability (NCI-H3122; first compound 2.53 µM): 0.38 | relative viability (NCI-H3122; first compound 8 µM): 0.534 | relative viability (NCI-H322M; first compound 0.08 µM): 0.661 | relative viability (NCI-H322M; first compound 0.253 µM): 0.73 | relative viability (NCI-H322M; first compound 0.8 µM): 0.742 | relative viability (NCI-H322M; first compound 2.53 µM): 0.634 | relative viability (NCI-H322M; first compound 8 µM): 0.749 | relative viability (NCI-H647; first compound 0.08 µM): 0.428 | relative viability (NCI-H647; first compound 0.253 µM): 0.534 | relative viability (NCI-H647; first compound 0.8 µM): 0.414 | relative viability (NCI-H647; first compound 2.53 µM): 0.403 | relative viability (NCI-H647; first compound 8 µM): 0.45 | relative viability (NCI-H727; first compound 0.08 µM): 0.704 | relative viability (NCI-H727; first compound 0.253 µM): 1.05 | relative viability (NCI-H727; first compound 2.53 µM): 0.773 | relative viability (NCI-H727; first compound 8 µM): 0.895 | relative viability (RERF-LC-KJ; first compound 0.08 µM): 0.643 | relative viability (RERF-LC-KJ; first compound 0.253 µM): 0.818 | relative viability (RERF-LC-KJ; first compound 0.8 µM): 0.709 | relative viability (RERF-LC-KJ; first compound 2.53 µM): 0.655 | relative viability (RERF-LC-KJ; first compound 8 µM): 0.676 | relative viability (SK-LU-1; first compound 0.08 µM): 0.678 | relative viability (SK-LU-1; first compound 0.253 µM): 0.813 | relative viability (SK-LU-1; first compound 0.8 µM): 0.755 | relative viability (SK-LU-1; first compound 2.53 µM): 0.643 | relative viability (SK-LU-1; first compound 8 µM): 0.648

Source: the supplement of paper PMC10307832
